Test system: HIV-IIIb
Test: Test A: Antiviral Assays in MT4 Cells
Format: cell-based
Details: MT-4 cells infected with HIV-IIIb (0.004 m.o.i.), 5 days of incubation, CellTiter-Glo chemiluminescence readout
Experimental: Test A: Antiviral Assays in MT4 Cells For the antiviral assay utilizing MT-4 cells, 0.4 μL of 189X test concentration of 3-fold serially diluted compound in DMSO was added to 40 μL of cell growth medium (RPMI 1640, 10% FBS, 1% penicillin/Streptomycin, 1% L-Glutamine, 1% HEPES) in each well of 384-well assay plates (10 concentrations) in quadruplicate. 1 mL aliquots of 2×10e6 MT-4 cells are pre-infected for 1 and 3 hrs respectively, @ 37° C. with 25 μL (MT4) or of either cell growth medium (mock-infected) or a fresh 1:250 dilution of an HIV-IIIb concentrated ABI stock (0.004 m.o.i. for MT4 cells). Infected and uninfected cells are diluted in cell growth medium and 35 uL of 2000 (for MT4) cells is added to each well of the assay plates. Assay plates were then incubated in a 37° C. incubator. After 5 days of incubation, 25 μl of 2× concentrated CellTiter-Glo™ Reagent (catalog #G7573, Promega Biosciences, Inc., Madison, Wis.) was added to each well of the assay plate. Cell lysis was carried out by incubating at room temperature for 2-3 min and then chemiluminescence was read using the Envision reader (PerkinElmer).

[1] = Human immunodeficiency virus 1, IIIB, MT4, 120 h

## Cc1cc2nc(-c3ccc(Cl)cc3)ccc2c(-c2ccc(Cl)cc2)c1[C@H](OC(C)(C)C)C(=O)O [Compound 27, (S)-2-(2,5-bis(4-chlorophenyl)-7-methylquinolin-6-yl)-2-tert-butoxyacetic acid]
[1]
  EC50: 23 nM

## Cc1cc2nc(C3CC3)ccc2c(-c2ccc(Cl)cc2)c1[C@H](OC(C)(C)C)C(=O)O [Compound 28, (S)-2-tert-butoxy-2-(5-(4-chlorophenyl)-2-cyclopropyl-7-methylquinolin-6-yl)acetic acid]
[1]
  EC50: 43 nM

## Cc1cc2nc(N3CCOCC3)ccc2c(-c2ccc(Cl)cc2)c1[C@H](OC(C)(C)C)C(=O)O [Compound 29, (S)-2-tert-Butoxy-2-(5-(4-chlorophenyl)-7-methyl-2-morpholinoquinolin-6-yl)acetic acid]
[1]
  EC50: 939 nM

## Cc1cc2nc(NC3CC3)ccc2c(-c2ccc(Cl)cc2)c1[C@H](OC(C)(C)C)C(=O)O [Compound 30, (S)-2-tert-butoxy-2-(5-(4-chlorophenyl)-2-(cyclopropylamino)-7-methylquinolin-6-yl)acetic acid]
[1]
  EC50: 153 nM

## CNc1ccc2c(-c3ccc(Cl)cc3)c([C@H](OC(C)(C)C)C(=O)O)c(C)cc2n1 [Compound 31, (S)-2-tert-butoxy-2-(5-(4-chlorophenyl)-7-methyl-2-(methylamino)quinolin-6-yl)acetic acid]
[1]
  EC50: 105 nM

## Cc1cc2nc(N(C)C)ccc2c(-c2ccc(Cl)cc2)c1[C@H](OC(C)(C)C)C(=O)O [Compound 32, (S)-2-tert-Butoxy-2-(5-(4-chlorophenyl)-2-(dimethylamino)-7-methylquinolin-6-yl)acetic acid]
[1]
  EC50: 108 nM

## Cc1cc2nc(NCc3ccncc3)ccc2c(-c2ccc(Cl)cc2)c1[C@H](OC(C)(C)C)C(=O)O [Compound 33, (S)-2-tert-Butoxy-2-(5-(4-chlorophenyl)-7-methyl-2-(pyridin-4-ylmethylamino)quinolin-6-yl)acetic acid]
[1]
  EC50: 95 nM

## Cc1cc2nc(NCCN3CCOCC3)ccc2c(-c2ccc(Cl)cc2)c1[C@H](OC(C)(C)C)C(=O)O [Compound 34, (S)-2-tert-Butoxy-2-(5-(4-chlorophenyl)-7-methyl-2-(2-morpholinoethylamino)quinolin-6-yl)acetic acid]
[1]
  EC50: 266 nM

## COCCOCCCNc1ccc2c(-c3ccc(Cl)cc3)c([C@H](OC(C)(C)C)C(=O)O)c(C)cc2n1 [Compound 35, (S)-2-tert-butoxy-2-(5-(4-chlorophenyl)-2-(3-(2-methoxyethoxy)propylamino)-7-methylquinolin-6-yl)acetic acid]
[1]
  EC50: 157 nM

## Cc1cc2nc(C(C)(C)C)ccc2c(-c2ccc3c4c(ccnc24)CCO3)c1[C@H](OC(C)(C)C)C(=O)O [Compound 36, (S)-2-tert-butoxy-2-((R)-2-tert-butyl-5-(2,3-dihydropyrano[4,3,2-de]quinolin-7-yl)-7-methylquinolin-6-yl)acetic acid]
[1]
  EC50: 20 nM

## Cc1cc2nc(C#Cc3ccccc3)ccc2c(-c2ccc(Cl)cc2)c1[C@H](OC(C)(C)C)C(=O)O [Compound 37A, (S)-2-tert-butoxy-2-(5-(4-chlorophenyl)-7-methyl-2-(phenylethynyl)quinolin-6-yl)acetic acid]
[1]
  EC50: 36 nM

## Cc1cc2nc(CCc3ccccc3)ccc2c(-c2ccc(Cl)cc2)c1[C@H](OC(C)(C)C)C(=O)O [Compound 37B, (S)-2-tert-butoxy-2-(5-(4-chlorophenyl)-7-methyl-2-phenethylquinolin-6-yl)acetic acid]
[1]
  EC50: 46 nM

## Cc1cc2nc(C#CC3CC3)ccc2c(-c2ccc(Cl)cc2)c1[C@H](OC(C)(C)C)C(=O)O [Compound 38, (S)-2-tert-butoxy-2-(5-(4-chlorophenyl)-2-(cyclopropylethynyl)-7-methylquinolin-6-yl)acetic acid]
[1]
  EC50: 68 nM

## Cc1cc2nc(CCC3CC3)ccc2c(-c2ccc(Cl)cc2)c1[C@H](OC(C)(C)C)C(=O)O [Compound 39, (S)-2-tert-butoxy-2-(5-(4-chlorophenyl)-2-(2-cyclopropylethyl)-7-methylquinolin-6-yl)acetic acid]
[1]
  EC50: 11 nM

## Cc1cc2nc(C(C)C)ccc2c(-c2ccc3c4c(ccnc24)CCO3)c1[C@H](OC(C)(C)C)C(=O)O [Compound 46, (S)-2-tert-Butoxy-2-((R)-5-(2,3-dihydropyrano[4,3,2-de]quinolin-7-yl)-2-isopropyl-7-methylquinolin-6-yl)acetic acid]
[1]
  EC50: 20 nM

## CCC(C)c1ccc2c(-c3ccc4c5c(ccnc35)CCO4)c([C@H](OC(C)(C)C)C(=O)O)c(C)cc2n1 (stereo partly drawn) [Compound 49, (2S)-2-tert-Butoxy-2-((5R)-2-sec-butyl-5-(2,3-dihydropyrano[4,3,2-de]quinolin-7-yl)-7-methylquinolin-6-yl)acetic acid]
[1]
  EC50: 27 nM

## Cc1cccc(C)c1-c1ccc2c(-c3ccc4c5c(ccnc35)CCO4)c([C@H](OC(C)(C)C)C(=O)O)c(C)cc2n1 [Compound 54, (S)-2-tert-Butoxy-2-((R)-5-(2,3-dihydropyrano[4,3,2-de]quinolin-7-yl)-2-(2,6-dimethylphenyl)-7-methylquinolin-6-yl)acetic acid]
[1]
  EC50: 87 nM

## Cc1cc2c(ccc(=O)n2-c2ccc(Cl)cc2)c(-c2ccc(Cl)cc2)c1[C@H](OC(C)(C)C)C(=O)O [Compound 59, (S)-2-(1,5-Bis(4-chlorophenyl)-7-methyl-2-oxo-1,2-dihydroquinolin-6-yl)-2-tert-butoxyacetic acid]
[1]
  EC50: 321 nM

## Cc1cc2c(ccc3nc(C(C)C)cn32)c(-c2ccc3c4c(ccnc24)CCO3)c1[C@H](OC(C)(C)C)C(=O)O [Compound 60, (S)-2-tert-Butoxy-2-((R)-6-(2,3-dihydropyrano[4,3,2-de]quinolin-7-yl)-2-isopropyl-8-methylimidazo[1,2-a]quinolin-7-yl)acetic acid]
[1]
  EC50: 305 nM

## Cc1cc2c(ccc3nccn32)c(-c2ccc(Cl)cc2)c1[C@H](OC(C)(C)C)C(=O)O [Compound 62, (S)-2-tert-Butoxy-2-(6-(4-chlorophenyl)-8-methylimidazo[1,2-a]quinolin-7-yl)acetic acid]
[1]
  EC50: 72 nM

## Cc1cc2c(ccc3nncn32)c(-c2ccc(Cl)cc2)c1[C@H](OC(C)(C)C)C(=O)O [Compound 63, (S)-2-tert-butoxy-2-(6-(4-chlorophenyl)-8-methyl-[1,2,4]triazolo[4,3-a]quinolin-7-yl)acetic acid]
[1]
  EC50: 183 nM

## Cc1cc2c(ccc3nnnn32)c(-c2ccc(Cl)cc2)c1[C@H](OC(C)(C)C)C(=O)O [Compound 64, (S)-2-tert-butoxy-2-(6-(4-chlorophenyl)-8-methyltetrazolo[1,5-a]quinolin-7-yl)acetic acid]
[1]
  EC50: 290 nM

## Cc1cc2nc(OCc3ccccc3)ccc2c(-c2ccc(Cl)cc2)c1[C@H](OC(C)(C)C)C(=O)O [Compound 65A, (S)-2-(2-(benzyloxy)-5-(4-chlorophenyl)-7-methylquinolin-6-yl)-2-tert-butoxyacetic acid]
[1]
  EC50: 85 nM

## Cc1cc2c(ccc(=O)n2Cc2ccccc2)c(-c2ccc(Cl)cc2)c1[C@H](OC(C)(C)C)C(=O)O [Compound 65B, (S)-2-(1-benzyl-5-(4-chlorophenyl)-7-methyl-2-oxo-1,2-dihydroquinolin-6-yl)-2-tert-butoxyacetic acid]
[1]
  EC50: 55 nM

## COc1ccc2c(-c3ccc(Cl)cc3)c([C@H](OC(C)(C)C)C(=O)O)c(C)cc2n1 [Compound 66, (S)-2-tert-butoxy-2-(5-(4-chlorophenyl)-2-methoxy-7-methylquinolin-6-yl)acetic acid]
[1]
  EC50: 297 nM

## Cc1cc2c(ccc(=O)n2C)c(-c2ccc(Cl)cc2)c1[C@H](OC(C)(C)C)C(=O)O [Compound 67, (S)-2-tert-butoxy-2-(5-(4-chlorophenyl)-1,7-dimethyl-2-oxo-1,2-dihydroquinolin-6-yl)acetic acid]
[1]
  EC50: 273 nM

## Cc1cc2nc(-c3cccs3)ccc2c(-c2ccc3c4c(ccnc24)CCO3)c1[C@H](OC(C)(C)C)C(=O)O [Compound 69, (S)-2-tert-butoxy-2-((R)-5-(2,3-dihydropyrano[4,3,2-de]quinolin-7-yl)-7-methyl-2-(thiophen-2-yl)quinolin-6-yl)acetic acid]
  EC50: 82 nM

## Cc1cc2nc(-c3ccn[nH]3)ccc2c(-c2ccc(Cl)cc2)c1[C@H](OC(C)(C)C)C(=O)O [Compound 70, (S)-2-tert-Butoxy-2-(5-(4-chlorophenyl)-7-methyl-2-(1H-pyrazol-5-yl)quinolin-6-yl)acetic acid]
[1]
  EC50: 206 nM

## Cc1cc2nc(-c3ccncc3)ccc2c(-c2ccc(Cl)cc2)c1[C@H](OC(C)(C)C)C(=O)O [Compound 73, (S)-2-tert-butoxy-2-(5-(4-chlorophenyl)-7-methyl-2-(pyridin-4-yl)quinolin-6-yl)acetic acid]
[1]
  EC50: 247 nM

## Cc1cc2nc(-c3cccnc3)ccc2c(-c2ccc(Cl)cc2)c1[C@H](OC(C)(C)C)C(=O)O [Compound 74, (S)-2-tert-butoxy-2-(5-(4-chlorophenyl)-7-methyl-2-(pyridin-3-yl)quinolin-6-yl)acetic acid]
[1]
  EC50: 92 nM

## Cc1cc2nc(-c3cscn3)ccc2c(-c2ccc(Cl)cc2)c1[C@H](OC(C)(C)C)C(=O)O [Compound 76, (S)-2-tert-butoxy-2-(5-(4-chlorophenyl)-7-methyl-2-(thiazol-4-yl)quinolin-6-yl)acetic acid]
[1]
  EC50: 267 nM
